In patent US20220313621A1, “FORMULATIONS OF CANNABINOIDS FOR THE TREATMENT OF PSORIASIS” (priority 2017, published 2022):

Key:
[1] = Discoloration of CBD solutions; assay type: physicochemical; conditions: end of day 1
Source text: The CBD2 material dissolved like the CBD1 therefore the CBD2 is CBD without the discoloration properties of CBD1.

[2] = in ethanol; cited from earlier work
[3] = molecular target: T1, human vanilloid receptor type 1 (VR1) (Homo sapiens, UniProt Q8NER1); conditions: HEK-hVR1 transfected cells; cited from earlier work
T1 construct: expressed in transfected cells; host or cells: HEK cells transfected with hVR1 (HEK-hVR1)

anandamide = conditions: rat basophilic leukemia cells; cited from earlier work
[4] = Solubility of CBD in solvents and excipients; assay type: physicochemical
Method: First, the solubility of cannabidiol (CBD) was assessed. The powder looked granulated under the microscope. […] The conclusions from the solubility studies were that OA and IPA were very good solvents and it was surprising that IPA was so much better than ethanol.
Solubility studies: CBD dissolved at the 10% level in AE and barely 9.5% in IPM. Further exploration was not conducted due to the small amount of drug API available for non-GMP work. CBD is soluble greater than 10% but probably not in excess of 20%, as the time to dissolve additional CBD was taking considerably longer.

[5] = Solubility of CBD in the Receptor Fluid; assay type: physicochemical; conditions: not told, aqueous with cosolvent or surfactant or cyclodextrin; PBS with 0.01 wt % NaN3, 4 wt % hydroxypropyl-cyclodextrin, 1 wt % Brij O20
sensitized guinea-pigs = conditions: 1 mg/kg i.v.; cited from earlier work
rats = conditions: 5 mg/kg, i.v., once daily for 4 weeks; cited from earlier work

T1 sequence (Q8NER1 whole entry): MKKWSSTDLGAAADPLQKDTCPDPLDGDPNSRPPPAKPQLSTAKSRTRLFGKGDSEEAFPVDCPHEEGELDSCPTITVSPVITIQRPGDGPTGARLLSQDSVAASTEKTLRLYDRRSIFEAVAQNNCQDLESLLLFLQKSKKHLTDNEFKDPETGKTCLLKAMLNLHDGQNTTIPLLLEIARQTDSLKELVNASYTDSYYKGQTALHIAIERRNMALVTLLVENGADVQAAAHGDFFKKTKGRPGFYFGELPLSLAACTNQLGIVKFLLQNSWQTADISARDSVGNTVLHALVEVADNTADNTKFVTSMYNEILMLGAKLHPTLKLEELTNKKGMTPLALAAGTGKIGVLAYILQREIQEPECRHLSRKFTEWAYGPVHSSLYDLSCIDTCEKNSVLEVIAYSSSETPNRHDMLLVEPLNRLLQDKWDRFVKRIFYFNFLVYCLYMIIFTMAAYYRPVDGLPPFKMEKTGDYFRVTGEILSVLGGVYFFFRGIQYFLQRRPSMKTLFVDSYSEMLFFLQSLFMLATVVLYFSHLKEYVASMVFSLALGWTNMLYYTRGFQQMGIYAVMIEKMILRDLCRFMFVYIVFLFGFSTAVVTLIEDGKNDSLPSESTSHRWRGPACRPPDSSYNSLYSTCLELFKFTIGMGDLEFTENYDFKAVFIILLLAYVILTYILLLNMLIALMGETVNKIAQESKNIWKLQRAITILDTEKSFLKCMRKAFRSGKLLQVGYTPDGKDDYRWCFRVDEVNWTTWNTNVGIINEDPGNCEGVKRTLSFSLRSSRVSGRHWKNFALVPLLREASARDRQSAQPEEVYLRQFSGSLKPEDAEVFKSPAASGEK

Compound	discoloration of solution [1]	reported solubility [2]	stimulation of human vanilloid receptor type 1 (VR1) [3]	inhibition of anandamide (anandamide)	solubility (weight to weight) ([4]; in ethanol)	solubility (weight to weight) ([4]; in hexamethyldisiloxane (HDS))	solubility (weight to weight) ([4]; in isopropyl alcohol (IPA))	solubility ([4]; in isopropyl myristate (IPM))	solubility (weight to weight) ([4]; in mineral oil)	solubility (weight to weight) ([4]; in oleyl alcohol (OA))	solubility (weight to weight) ([4]; in propylene glycol (PG))	solubility [5]	ovalbumin-induced airway obstruction (sensitized guinea-pigs)	cardiac inflammation produced by doxorubicin (rats)
C=C(C)[C@@H]1CCC(C)=C[C@H]1c1c(O)cc(CCCCC)cc1O [CBD1]	coloured by the end of the day													
C=C(C)[C@@H]1CCC(C)=C[C@H]1c1c(O)cc(CCCCC)cc1O [CBD2]	None of the CBD2 solutions were coloured at the end of day 1													
C=C(C)C1CCC(C)=CC1c1c(O)cc(CCCCC)cc1O (stereo not drawn) [CBD, 2-[3-methyl-6-(1-methylethenyl)-2-cyclohexen-1-yl]-5-pentyl-1,3-benzenediol]		3.5%	maximum effect similar in efficacy to that of capsaicin	inhibit anandamide	6-7%	3-4%	greater than 14%	~9.5%	3-4%	greater than 8%	6-7%	> 50 µg/mL	attenuated ovalbumin-induced airway obstruction	attenuated cardiac inflammation produced by doxorubicin
